Assay results from patent US20200283384A1, “ANTIBACTERIAL COMPOUNDS AND METHODS OF USE THEREOF” (Wayne State University, priority 2016, published 2020).
≈ marks a conversion by molar mass, not a printed value.

Columns and labels:
Format in all cases: cell-based, Staphylococcus aureus
[1] = system: methicillin-resistant S. aureus clinical isolates (MRSA); S. aureus (K1902); assay: Plasmid curing at sub-inhibitory concentration; settings: for Plasmid band in agarose gel of cured derivatives: S. aureus K1902, FIG. 3; for Susceptibility of isolates after exposure to SIC: SA1 and SA2 to oxacillin, KSA to chloramphenicol
Method: Plasmid curing was performed per Trevors (Trevors, 1986 Plasmid curing in bacteria. FEMS Microbiology, 32: 149-157). In brief, the clinical isolate was grown in the presence of HN18 and HN34 at the specified concentration for 18 h at 35° C. and then plated on Muller Hinton agar (MHA) plates to obtain isolated colonies. The isolated colonies were then replica plated onto MHA and MHA plates containing antibiotics. […] The percentage curing efficiency was expressed as the number of colonies with cured phenotype per 100 colonies tested. For plasmid extraction, 5 ml of an overnight culture of S. aureus strain was centrifuged and cells were subjected to 1 ml lysostaphin (20 μg/ml) for 1 hour at 35° C. prior to DNA extraction. Extraction of DNA was carried using QIAprep Spin Miniprep Kit (Qiagen) per manufacturer's instruction. DNA profile analysis was carried out by electrophoresis on 1.5% agarose gel.
The methicillin-resistant S. aureus clinical isolates (MRSA) growing in the presence of sub-inhibitory concentrations of HN18 and HN34 were taken for the evaluation for the loss of plasmids as described above. A culture control without a curing agent was also maintained in the curing experiment to estimate the rate of spontaneous loss of plasmids under these conditions. HN18 and HN34 eliminated the plasmid mediated antibiotic resistance markers with varying curing efficiencies (Table 3). HN18 cured plasmids from SA1, SA2, SA7 and SA8 at frequency in the range of 13-100%. HN34 also cured plasmids from SA1, SA2, SA7 and SA8 strains with 30%-100% curing efficiency.
(§1) Plasmid curing activity of HN18 and HN34 was also evaluated in S. aureus (K1902) which is known to harbor a 5 kb plasmid with a chloramphenicol resistance gene. Along with the KSA reference strain, the plasmid curing activity was repeated for SA1 and SA2 strains which are MRSA (Table 4).

[2] = system: S. aureus clinical isolates; assay: Synergistic effect with oxacillin (oxacillin MIC alone and in presence of SIC); settings: for Synergistic activity in combination with oxacillin: S. aureus clinical isolates, compound at SIC
Method: The synergistic effect (interaction) of HN18 and HN34 with different antibiotics against S. aureus clinical isolates was studied. The oxacillin MIC values of 8 clinical isolates of Staphylococcus aureus were determined. The oxacillin MIC of the same isolates were also determined after they were exposed to SIC of HN18, HN34 (Table 5). […] Column 2 and 3 show the oxacillin MIC value of the same isolates in presence of SIC of HN18 and HN34 respectively.

[3] = system: Methicillin-resistant S. aureus strains; S. aureus (K1902); assay: MIC and SIC in 96 well microplates (plasmid curing study)
Method: Plasmid curing activity of HN18 and HN34 was evaluated. Methicillin-resistant S. aureus strains were sub-cultured on blood agar plates to obtain isolated colonies, incubated at 35° C. in a CO2 incubator. The fresh overnight bacterial inoculum was prepared by re-suspending a few isolated colonies in a tube containing 5 ml of saline. […] The sub-inhibitory concentration (SIC) is defined as the concentration before MIC (in a serial dilution method where antibiotic concentration decreases by half from each tube to the next one).
as §1

[4] = Table 3, isolate SA1, at SIC, lack of growth in presence of M, Ox (4 μg/ml)
[5] = Table 3, isolate SA2, at SIC, lack of growth in presence of M, Ox (4 μg/ml)
[6] = Table 3, isolate SA3, at SIC, lack of growth in presence of M, Ox (4 μg/ml)
[7] = Table 3, isolate SA4, at SIC, lack of growth in presence of M, Ox (4 μg/ml)
[8] = Table 3, isolate SA5, at SIC, lack of growth in presence of M, Ox (4 μg/ml)
[9] = Table 3, isolate SA6, at SIC, lack of growth in presence of M, Ox (4 μg/ml)
[10] = Table 3, isolate SA7, at SIC, lack of growth in presence of M, Ox (4 μg/ml)
[11] = Table 3, isolate SA8, at SIC, lack of growth in presence of M, Ox (4 μg/ml)
[12] = Table 4, KSA (S. aureus K1902), experiment I, lack of growth in presence of Cm (10 μg/ml)
[13] = Table 4, KSA (S. aureus K1902), experiment II, lack of growth in presence of Cm (10 μg/ml)
[14] = Table 4, isolate SA1, experiment I, lack of growth in presence of M, Ox (4 μg/ml)
[15] = Table 4, isolate SA2, experiment I, lack of growth in presence of M, Ox (4 μg/ml)
[16] = Table 4, KSA (S. aureus K1902), experiment I
[17] = Table 4, KSA (S. aureus K1902), experiment II
[18] = Table 4, isolate SA1, experiment I
[19] = Table 4, isolate SA1, experiment II
[20] = Table 4, isolate SA2, experiment I
[21] = Table 4, isolate SA2, experiment II

For Fc1ccc(C(C2=CNC3C=CC=CC23)C2=C3C=CC=CC3NC2)cc1F (stereo not drawn) [HN18, 3-((3,4-difluorophenyl)(2,7a-dihydro-1H-indol-3-yl)methyl)-3a,7a-dihydro-1H-indole], the “Plasmid band in agarose gel of cured derivatives” value [1] was “absent”, the “Susceptibility of isolates after exposure to SIC” value [1] was “became susceptible” and the “Curing efficiency I” value [1, 4] was 0%. The “Curing efficiency II” value [1, 4] was 100%, the “Curing efficiency I” value [1, 5] was 100% and the “Curing efficiency II” value [1, 5] was 50%. The “Curing efficiency I” value [1, 6] was 0%, the “Curing efficiency II” value [1, 6] was 0% and the “Curing efficiency I” value [1, 7] was 100%. The “Curing efficiency II” value [1, 7] was 0%, the “Curing efficiency I” value [1, 8] was 0% and the “Curing efficiency II” value [1, 8] was 0%. For the same molecule, the “Curing efficiency I” value [1, 9] was 0%, the “Curing efficiency II” value [1, 9] was 0% and the “Curing efficiency I” value [1, 10] was 23%. For the same molecule, the “Curing efficiency II” value [1, 10] was 90%, the “Curing efficiency I” value [1, 11] was 13% and the “Curing efficiency II” value [1, 11] was 70%. For the same molecule, the “Curing efficiency (%)” value [1, 12] was 36.6%, the “Curing efficiency (%)” value [1, 13] was 46.6% and the “Curing efficiency (%)” value [1, 14] was 63.3%. The “Curing efficiency (%)” value [1, 15] was 100%, the “Plasmid curing frequency / curing efficiency” value ([1]; range over SA1, SA2, SA7 and SA8) was 13-100% and the “Synergistic activity in combination with oxacillin” value [2] was “decrease in the oxacillin MIC”. For the same molecule, the “Oxacillin MIC in presence of SIC of the compound (1 μg/ml)” value (shortened to “Oxacillin MIC in presence”) ([2]; isolate SA3, experiment I) was 0.5 µg/mL, the “Oxacillin MIC in presence” value ([2]; isolate SA3, experiment II) was 0.5 µg/mL and the “Oxacillin MIC in presence” value ([2]; isolate SA4, experiment I) was 0.5 µg/mL. The “Oxacillin MIC in presence” value ([2]; isolate SA4, experiment II) was 1 µg/mL, the “Oxacillin MIC in presence” value ([2]; isolate SA5, experiment I) was 0.03 µg/mL and the “Oxacillin MIC in presence” value ([2]; isolate SA5, experiment II) was 0.03 µg/mL. The “Oxacillin MIC in presence” value ([2]; isolate SA9, experiment I) was 2 µg/mL, the “Oxacillin MIC in presence” value ([2]; isolate SA9, experiment II) was 4 µg/mL and the “Oxacillin MIC in presence” value ([2]; isolate SA10, experiment I) was <0.03 µg/mL. For the same molecule, the “Oxacillin MIC in presence” value ([2]; isolate SA10, experiment II) was <0.03 µg/mL, the “Oxacillin MIC in presence” value ([2]; isolate SA11, experiment I) was <0.03 µg/mL and the “Oxacillin MIC in presence” value ([2]; isolate SA11, experiment II) was <0.03 µg/mL. For the same molecule, the “Oxacillin MIC in presence” value ([2]; isolate SA15, experiment I) was <0.03 µg/mL, the “Oxacillin MIC in presence” value ([2]; isolate SA15, experiment II) was <0.03 µg/mL and the “Oxacillin MIC in presence” value ([2]; isolate SA18, experiment I) was <0.03 µg/mL. For the same molecule, the “Oxacillin MIC in presence” value ([2]; isolate SA18, experiment II) was <0.03 µg/mL, the SIC ([3]; Table 3, isolate SA1 (MRSA)) was 0.5 µg/mL and the SIC ([3]; Table 3, isolate SA2 (MRSA)) was 1.0 µg/mL. The SIC ([3]; Table 3, isolate SA3 (MRSA)) was 1.0 µg/mL, the SIC ([3]; Table 3, isolate SA4 (MRSA)) was 0.5 µg/mL and the SIC ([3]; Table 3, isolate SA5 (MRSA)) was 1.0 µg/mL. It also gave an SIC ([3]; Table 3, isolate SA6 (MRSA)) of 0.5 µg/mL, an SIC ([3]; Table 3, isolate SA7 (MRSA)) of 0.5 µg/mL and an SIC ([3]; Table 3, isolate SA8 (MRSA)) of 1.0 µg/mL. It also gave an MIC [3, 16] of 2 µg/mL (≈ 5.52 µM), an SIC [3, 16] of 1 µg/mL and an MIC [3, 17] of 2 µg/mL (≈ 5.52 µM). For the same molecule, the SIC [3, 17] was 1 µg/mL, the MIC [3, 18] was 2 µg/mL (≈ 5.52 µM) and the SIC [3, 18] was 1 µg/mL. The MIC [3, 19] was 2 µg/mL (≈ 5.52 µM), the SIC [3, 19] was 1 µg/mL and the SIC [3, 20] was 1 µg/mL. For the same molecule, the MIC [3, 21] was 2 µg/mL (≈ 5.52 µM) and the SIC [3, 21] was 1 µg/mL.

In the case of Cc1[nH]c2ccccc2c1C(c1ccc(F)c(F)c1)c1c(C)[nH]c2ccccc12 [HN34], the “Plasmid band in agarose gel of cured derivatives” value [1] is reported as “absent”, the “Susceptibility of isolates after exposure to SIC” value [1] is reported as “became susceptible” and the “Curing efficiency I” value [1, 4] is reported as 100%. For the same molecule, the “Curing efficiency II” value [1, 4] was 100%, the “Curing efficiency I” value [1, 5] was 100% and the “Curing efficiency II” value [1, 5] was 70%. The “Curing efficiency I” value [1, 6] was 0%, the “Curing efficiency II” value [1, 6] was 0% and the “Curing efficiency I” value [1, 7] was 100%. The “Curing efficiency II” value [1, 7] was 0%, the “Curing efficiency I” value [1, 8] was 0% and the “Curing efficiency II” value [1, 8] was 0%. For the same molecule, the “Curing efficiency I” value [1, 9] was 0%, the “Curing efficiency II” value [1, 9] was 0% and the “Curing efficiency I” value [1, 10] was 50%. For the same molecule, the “Curing efficiency II” value [1, 10] was 30%, the “Curing efficiency I” value [1, 11] was 40% and the “Curing efficiency II” value [1, 11] was 63.33%. For the same molecule, the “Curing efficiency (%)” value [1, 12] was 33.3%, the “Curing efficiency (%)” value [1, 13] was 50% and the “Curing efficiency (%)” value [1, 14] was 100%. The “Curing efficiency (%)” value [1, 15] was 96.6%, the “Synergistic activity in combination with oxacillin” value [2] was “did not show synergistic activity” and the “Oxacillin MIC in presence” value ([2]; isolate SA3, experiment I) was >16 µg/mL. For the same molecule, the “Oxacillin MIC in presence” value ([2]; isolate SA3, experiment II) was >16 µg/mL, the “Oxacillin MIC in presence” value ([2]; isolate SA4, experiment I) was >16 µg/mL and the “Oxacillin MIC in presence” value ([2]; isolate SA4, experiment II) was >16 µg/mL. For the same molecule, the “Oxacillin MIC in presence” value ([2]; isolate SA5, experiment I) was 16 µg/mL, the “Oxacillin MIC in presence” value ([2]; isolate SA5, experiment II) was >16 µg/mL and the “Oxacillin MIC in presence” value ([2]; isolate SA9, experiment I) was >16 µg/mL. For the same molecule, the “Oxacillin MIC in presence” value ([2]; isolate SA9, experiment II) was >16 µg/mL, the “Oxacillin MIC in presence” value ([2]; isolate SA10, experiment I) was 16 µg/mL and the “Oxacillin MIC in presence” value ([2]; isolate SA10, experiment II) was 16 µg/mL. For the same molecule, the “Oxacillin MIC in presence” value ([2]; isolate SA11, experiment I) was 16 µg/mL, the “Oxacillin MIC in presence” value ([2]; isolate SA11, experiment II) was 8 µg/mL and the “Oxacillin MIC in presence” value ([2]; isolate SA15, experiment I) was 16 µg/mL. The “Oxacillin MIC in presence” value ([2]; isolate SA15, experiment II) was >16 µg/mL, the “Oxacillin MIC in presence” value ([2]; isolate SA18, experiment I) was >16 µg/mL and the “Oxacillin MIC in presence” value ([2]; isolate SA18, experiment II) was >16 µg/mL. The SIC ([3]; Table 3, isolate SA1 (MRSA)) was 1 µg/mL, the SIC ([3]; Table 3, isolate SA2 (MRSA)) was 1 µg/mL and the SIC ([3]; Table 3, isolate SA3 (MRSA)) was 1 µg/mL. The SIC ([3]; Table 3, isolate SA4 (MRSA)) was 1 µg/mL, the SIC ([3]; Table 3, isolate SA5 (MRSA)) was 1 µg/mL and the SIC ([3]; Table 3, isolate SA6 (MRSA)) was 0.5 µg/mL. For the same molecule, the SIC ([3]; Table 3, isolate SA7 (MRSA)) was 0.5 µg/mL, the SIC ([3]; Table 3, isolate SA8 (MRSA)) was 1 µg/mL and the MIC [3, 16] was 2 µg/mL (≈ 5.18 µM). For the same molecule, the SIC [3, 16] was 1 µg/mL, the MIC [3, 17] was 2 µg/mL (≈ 5.18 µM) and the SIC [3, 17] was 1 µg/mL. For the same molecule, the SIC [3, 18] was 1 µg/mL, the MIC [3, 19] was 2 µg/mL (≈ 5.18 µM) and the SIC [3, 19] was 1 µg/mL. The MIC [3, 20] was 2 µg/mL (≈ 5.18 µM), the SIC [3, 20] was 1 µg/mL and the MIC [3, 21] was 2 µg/mL (≈ 5.18 µM). It also gave an SIC [3, 21] of 1 µg/mL.
